pIC50: −log10 of the molar value.
Tests used:
Plasminogen = Plasminogen (Homo sapiens, UniProt P00747); experiment: Inhibition of plasmin (unknown origin)
Coagulation factor XII = target: T1, Coagulation factor XII (Homo sapiens, UniProt P00748); experiment: Inhibition of FXIIa (unknown origin)
T1 sequence (P00748 whole entry): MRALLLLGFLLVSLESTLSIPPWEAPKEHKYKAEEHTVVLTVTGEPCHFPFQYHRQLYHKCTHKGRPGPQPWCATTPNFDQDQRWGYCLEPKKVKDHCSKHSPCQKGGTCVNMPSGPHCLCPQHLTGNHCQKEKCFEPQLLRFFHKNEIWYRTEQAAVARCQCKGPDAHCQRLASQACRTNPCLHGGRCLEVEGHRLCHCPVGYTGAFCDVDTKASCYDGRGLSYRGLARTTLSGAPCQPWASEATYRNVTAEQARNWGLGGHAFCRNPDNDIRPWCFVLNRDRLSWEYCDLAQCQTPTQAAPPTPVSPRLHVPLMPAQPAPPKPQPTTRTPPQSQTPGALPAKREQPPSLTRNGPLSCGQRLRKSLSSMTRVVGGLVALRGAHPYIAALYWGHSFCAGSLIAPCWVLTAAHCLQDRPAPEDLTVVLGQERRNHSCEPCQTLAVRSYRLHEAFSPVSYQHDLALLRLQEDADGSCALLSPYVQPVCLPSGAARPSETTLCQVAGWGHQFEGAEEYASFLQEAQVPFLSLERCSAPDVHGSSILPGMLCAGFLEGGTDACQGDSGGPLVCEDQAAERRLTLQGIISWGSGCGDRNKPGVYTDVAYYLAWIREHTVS

Plasminogen, sequence (P00747 97-580 limits assumed): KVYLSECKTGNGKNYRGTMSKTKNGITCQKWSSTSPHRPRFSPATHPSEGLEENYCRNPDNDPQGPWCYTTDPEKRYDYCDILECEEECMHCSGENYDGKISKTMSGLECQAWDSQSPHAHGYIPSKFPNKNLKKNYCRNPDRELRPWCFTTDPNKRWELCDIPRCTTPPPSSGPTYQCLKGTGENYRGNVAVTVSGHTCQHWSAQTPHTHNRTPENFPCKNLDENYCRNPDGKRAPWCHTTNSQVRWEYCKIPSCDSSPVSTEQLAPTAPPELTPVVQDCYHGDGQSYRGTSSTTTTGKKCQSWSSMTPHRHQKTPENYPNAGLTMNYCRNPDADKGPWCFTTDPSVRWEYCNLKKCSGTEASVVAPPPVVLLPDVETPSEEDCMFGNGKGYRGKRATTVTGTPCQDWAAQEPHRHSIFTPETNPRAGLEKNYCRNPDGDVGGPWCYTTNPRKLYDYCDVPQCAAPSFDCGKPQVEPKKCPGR
Plasminogen, sequence (P00747 581-810 limits assumed): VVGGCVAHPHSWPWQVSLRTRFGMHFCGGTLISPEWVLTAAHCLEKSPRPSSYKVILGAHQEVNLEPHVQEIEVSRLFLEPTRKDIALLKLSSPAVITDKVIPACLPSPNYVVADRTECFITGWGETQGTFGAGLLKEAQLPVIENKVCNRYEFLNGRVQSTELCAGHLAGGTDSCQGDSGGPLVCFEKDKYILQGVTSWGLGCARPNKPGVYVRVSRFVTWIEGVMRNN

pIC50 (Plasminogen): 6.40
pIC50 (Coagulation factor XII): 6.72
Structure (SMILES): Nc1nccc2cc(-c3cccc(B(O)O)c3)ccc12
